Assay results reported in PMC8286840, “Identifying SARS-CoV-2 antiviral compounds by screening for small molecule inhibitors of Nsp3 papain-like protease” (Biochemical Journal, 2021).
Where a name gives a salt, the structure may show the parent alone. Read-outs that look alike come from different tables or passages of the source.

Legend:
[1] = target: T1, SARS-CoV-2 PLpro (nsp3 1564–1878) (Severe acute respiratory syndrome coronavirus 2, UniProt P0DTD1); experiment: biochemical; set-up: FRET-quenched peptide (Pro3) cleavage by PLpro, 10 min pre-incubation, slope over 20 min, normalised to no-compound control; conditions: read-out: % of control remaining
[2] = target: T1, SARS-CoV-2 PLpro (nsp3 1564–1878); experiment: biochemical; set-up: FRET-quenched peptide (Pro3) cleavage by PLpro, 10 min pre-incubation, slope over 20 min, normalised to no-compound control; conditions: read-out: % of control remaining; remark: listed apart in the source

CC(=O)N[C@@H](Cc1ccccc1)C(=O)O [NSC 45699]
remaining activity at 1.25 µM ([1]; Well no.=8710, low concentration screen): 107% | remaining activity at 3.75 µM ([2]; Well no.=8710, high concentration screen): 106%

O=C1C(SCCO)=C(SCCO)C(=O)c2ccccc21 [NSC 95397]
remaining activity at 1.25 µM ([1]; Well no.=5678, low concentration screen): 92% | remaining activity at 3.75 µM ([2]; Well no.=5678, high concentration screen): 75.9%

CN1CCN(c2ccc([N+](=O)[O-])c3no[n+]([O-])c23)CC1 [NSC-207895 (XI-006)]
remaining activity at 1.25 µM ([1]; Well no.=4647, low concentration screen): 101% | remaining activity at 3.75 µM ([2]; Well no.=4647, high concentration screen): 95.2%

O=c1cc(N2CCOCC2)oc2c(-c3cccc4c3sc3ccccc34)cccc12 [NU7441 (KU-57788)]
remaining activity at 1.25 µM ([1]; Well no.=4926, low concentration screen): 99.2% | remaining activity at 3.75 µM ([2]; Well no.=4926, high concentration screen): 94.3%

O=c1cc(N2CCOCC2)oc2c1ccc1ccccc12 [NU 7026 - 2-(4-Morpholinyl)-4H-naphthol[1,2-b]pyran-4-one]
remaining activity at 1.25 µM ([1]; Well no.=2630, low concentration screen): 92.2% | remaining activity at 3.75 µM ([2]; Well no.=2630, high concentration screen): 92.6%

O=C(Nc1nc2ccc(NC(=O)C34C[C@H]5C[C@@H](C3)C[C@@H](C4)C5)cc2s1)c1ccccc1 [NVP-231]
remaining activity at 1.25 µM ([1]; Well no.=5410, low concentration screen): 95.2% | remaining activity at 3.75 µM ([2]; Well no.=5410, high concentration screen): 86.5%

CCNC(=O)c1cc2c(-c3cc(OCCN4CCCC4)c(Cl)cc3Cl)nc(N)nc2s1 [NVP-BEP800]
remaining activity at 1.25 µM ([1]; Well no.=4917, low concentration screen): 93.5% | remaining activity at 3.75 µM ([2]; Well no.=4917, high concentration screen): 95.1%

COc1ccc(-c2ccc3ncc4c(c3c2)n(-c2ccc(N3CCNCC3)c(C(F)(F)F)c2)c(=O)n4C)cn1 [NVP-BGT226]
remaining activity at 1.25 µM ([1]; Well no.=4701, low concentration screen): 99% | remaining activity at 3.75 µM ([2]; Well no.=4701, high concentration screen): 97.1%

Cc1ccc(C(=O)Nc2cccc(C(F)(F)F)c2)cc1Nc1nc(-c2cccnc2)nc2c1cnn2C [NVP-BHG712]
remaining activity at 1.25 µM ([1]; Well no.=4820, low concentration screen): 100% | remaining activity at 3.75 µM ([2]; Well no.=4820, high concentration screen): 96.9%

Cn1cc(-c2ccc3ncc(Cc4ccc5ncccc5c4)n3n2)cn1 [NVP-BVU972]
remaining activity at 1.25 µM ([1]; Well no.=4930, low concentration screen): 98.1% | remaining activity at 3.75 µM ([2]; Well no.=4930, high concentration screen): 92.3%

COc1cc2c(cc1OC(C)C)[C@H](c1ccc(Cl)cc1)N(c1ccc(N(C)C[C@H]3CC[C@H](N4CCN(C)C(=O)C4)CC3)cc1)C(=O)C2 [NVP-CGM097 (sulfate)]
remaining activity at 1.25 µM ([1]; Well no.=6878, low concentration screen): 95.2% | remaining activity at 3.75 µM ([2]; Well no.=6878, high concentration screen): 89.6%

COc1cc2c(cc1OC(C)C)[C@H](c1ccc(Cl)cc1)N(c1ccc(N(C)C[C@H]3CC[C@H](N4CCN(C)C(=O)C4)CC3)cc1)C(=O)C2 [NVP-CGM097]
remaining activity at 1.25 µM ([1]; Well no.=6974, low concentration screen): 95.7% | remaining activity at 3.75 µM ([2]; Well no.=6974, high concentration screen): 94.5%

CNC(=O)c1ccccc1Nc1nc(Nc2ccc(N3CCOCC3)cc2OC)ncc1Cl [NVP-TAE226]
remaining activity at 1.25 µM ([1]; Well no.=4789, low concentration screen): 103% | remaining activity at 3.75 µM ([2]; Well no.=4789, high concentration screen): 105%

CN(C)C(N)=NCCC[C@H](N)C(=O)O [N^G,N^G-Dimethylarginine hydrochloride]
remaining activity at 1.25 µM ([1]; Well no.=689, low concentration screen): 97% | remaining activity at 3.75 µM ([2]; Well no.=689, high concentration screen): 97%

COc1ccc2cc(CCC(C)=O)ccc2c1 [Nabumetone]
remaining activity at 1.25 µM ([1]; Well no.=2005, low concentration screen): 102% | remaining activity at 3.75 µM ([2]; Well no.=2005, high concentration screen): 101%

CC1CCc2c(N3CCC(O)CC3)c(F)cc3c(=O)c(C(=O)O)cn1c23 (stereo not shown) [Nadifloxacin]
remaining activity at 1.25 µM ([1]; Well no.=2003, low concentration screen): 96.2% | remaining activity at 3.75 µM ([2]; Well no.=2003, high concentration screen): 94.8%

N=C(N)Nc1ccc(C(=O)Oc2ccc3cc(C(=N)N)ccc3c2)cc1 [Nafamostat mesylate]
remaining activity at 1.25 µM ([1]; Well no.=4809, low concentration screen): 104% | remaining activity at 3.75 µM ([2]; Well no.=4809, high concentration screen): 104%

CCOc1ccc2ccccc2c1C(=O)N[C@@H]1C(=O)N2[C@@H]1SC(C)(C)[C@@H]2C(=O)O [Nafcillin (sodium monohydrate)]
remaining activity at 1.25 µM ([1]; Well no.=8660, low concentration screen): 99% | remaining activity at 3.75 µM ([2]; Well no.=8660, high concentration screen): 98.1%

CCOc1ccc2ccccc2c1C(=O)N[C@@H]1C(=O)N2[C@@H]1SC(C)(C)[C@@H]2C(=O)O [Nafcillin Sodium]
remaining activity at 1.25 µM ([1]; Well no.=4690, low concentration screen): 104% | remaining activity at 3.75 µM ([2]; Well no.=4690, high concentration screen): 101%

CCN(CC)CCOC(=O)C(Cc1cccc2ccccc12)CC1CCCO1 (stereo not shown) [Naftidrofuryl (oxalate)]
remaining activity at 1.25 µM ([1]; Well no.=7050, low concentration screen): 98% | remaining activity at 3.75 µM ([2]; Well no.=7050, high concentration screen): 93.7%

CN(C/C=C/c1ccccc1)Cc1cccc2ccccc12 [Naftifine HCl]
remaining activity at 1.25 µM ([1]; Well no.=4983, low concentration screen): 96.8% | remaining activity at 3.75 µM ([2]; Well no.=4983, high concentration screen): 96.2%

COc1ccccc1N1CCN(CC(O)COc2cccc3ccccc23)CC1 (stereo not shown) [Naftopidil dihydrochloride]
remaining activity at 1.25 µM ([1]; Well no.=1084, low concentration screen): 96.1% | remaining activity at 3.75 µM ([2]; Well no.=1084, high concentration screen): 95.6%

COc1ccccc1N1CCN(CC(O)COc2cccc3ccccc23)CC1 (stereo not shown) [Naftopidil]
remaining activity at 1.25 µM ([1]; Well no.=7523, low concentration screen): 101% | remaining activity at 3.75 µM ([2]; Well no.=7523, high concentration screen): 97.2%

Oc1ccc2c3c1O[C@H]1[C@@H](O)CC[C@@]4(O)[C@@H](C2)N(CC2CCC2)CC[C@]314 [Nalbuphine]
remaining activity at 1.25 µM [1]: 95.6% | remaining activity at 3.75 µM [2]: 97.3%

CCn1cc(C(=O)O)c(=O)c2ccc(C)nc21 [Nalidixic acid sodium]
remaining activity at 1.25 µM ([1]; Well no.=951, low concentration screen): 101% | remaining activity at 3.75 µM ([2]; Well no.=951, high concentration screen): 102%

CCn1cc(C(=O)O)c(=O)c2ccc(C)nc21 [Nalidixic acid]
remaining activity at 1.25 µM ([1]; Well no.=3256, low concentration screen): 99.8% | remaining activity at 3.75 µM ([2]; Well no.=3256, high concentration screen): 99.3%

C=CCN1CC[C@]23c4c5ccc(O)c4O[C@H]2/C(=N/N=C2\CC[C@@]4(O)[C@H]6Cc7ccc(O)c8c7[C@@]4(CCN6CC=C)[C@H]2O8)CC[C@@]3(O)[C@H]1C5 [Naloxonazine dihydrochloride]
remaining activity at 1.25 µM ([1]; Well no.=894, low concentration screen): 105% | remaining activity at 3.75 µM ([2]; Well no.=894, high concentration screen): 107%

C=CCN1CC[C@]23c4c5ccc(O)c4O[C@H]2/C(=N/N=C2\CC[C@@]4(O)[C@H]6Cc7ccc(O)c8c7[C@@]4(CCN6CC=C)[C@H]2O8)CC[C@@]3(O)[C@H]1C5 [Naloxonazine]
remaining activity at 1.25 µM ([1]; Well no.=2062, low concentration screen): 101% | remaining activity at 3.75 µM ([2]; Well no.=2062, high concentration screen): 105%

C=CCN1CC[C@]23c4c5ccc(O)c4O[C@H]2/C(=N/NC(=O)c2ccccc2)CC[C@@]3(O)[C@H]1C5 [Naloxone benzoylhydrazone]
remaining activity at 1.25 µM ([1]; Well no.=798, low concentration screen): 93.2% | remaining activity at 3.75 µM ([2]; Well no.=798, high concentration screen): 99.5%

C=CCN1CC[C@]23c4c5ccc(O)c4O[C@H]2C(=O)CC[C@@]3(O)[C@H]1C5 [Naloxone hydrochloride]
remaining activity at 1.25 µM ([1]; Well no.=907, low concentration screen): 103% | remaining activity at 3.75 µM ([2]; Well no.=907, high concentration screen): 105%

C=CCN1CC[C@]23c4c5ccc(O)c4O[C@H]2C(=O)CC[C@@]3(O)[C@H]1C5 [Naloxone]
remaining activity at 1.25 µM ([1]; Well no.=2060, low concentration screen): 104% | remaining activity at 3.75 µM ([2]; Well no.=2060, high concentration screen): 103%

O=C1CC[C@@]2(O)[C@H]3Cc4ccc(O)c5c4[C@@]2(CCN3CC2CC2)[C@H]1O5 [Naltrexone (Hydrochloride)]
remaining activity at 1.25 µM ([1]; Well no.=8147, low concentration screen): 98.3% | remaining activity at 3.75 µM ([2]; Well no.=8147, high concentration screen): 95.1%

O=C1CC[C@@]2(O)[C@H]3Cc4ccc(O)c5c4[C@@]2(CCN3CC2CC2)[C@H]1O5 [Naltrexone hydrochloride]
remaining activity at 1.25 µM ([1]; Well no.=997, low concentration screen): 97.6% | remaining activity at 3.75 µM ([2]; Well no.=997, high concentration screen): 100%

O=C1CC[C@@]2(O)[C@H]3Cc4ccc(O)c5c4[C@@]2(CCN3CC2CC2)[C@H]1O5 [Naltrexone.HCl]
remaining activity at 1.25 µM ([1]; Well no.=1883, low concentration screen): 88.3% | remaining activity at 3.75 µM ([2]; Well no.=1883, high concentration screen): 92.8%

Oc1ccc2c3c1O[C@H]1c4oc5ccccc5c4C[C@@]4(O)[C@@H](C2)N(CC2CC2)CC[C@]314 [Naltriben methanesulfonate hydrate]
remaining activity at 1.25 µM ([1]; Well no.=1698, low concentration screen): 95.8% | remaining activity at 3.75 µM ([2]; Well no.=1698, high concentration screen): 95.9%
